Here are results for 1 compound from patent publication US10675244B2, “Microvesicles derived from nucleated, mammalian cells and use thereof” (MDIMUNE INC., priority 2009, dated 2020).

For data set [1] the following is noted: 6 hours after tail vein injection; 100 μg microvesicles or 30 μg doxorubicin.
Procedure: After cultivation for 10 days, PBS, PBS containing 100 μg of the extruded microvesicles (doxorubicin-microvesicle), or PBS containing 30 μg of doxorubicin was injected at a dose of 100 μl into mice via the tail vein.
Six hours after the injection, cancer tissue, the spleen and the heart were excised from the mice and fixed for 24 hours in 4% paraformaldehyde. For dehydration, the fixed tissues were immersed once in 70% ethanol, four times in 95% ethanol, three times in 100% ethanol, and three times in 100% xylene, each time for one hour in all cases. Thereafter, the tissues were embedded in paraffin, cut into sections 4 μm thick, and attached onto slide glass. The paraffin was melted by incubation at 60° C. for one hour. For hydration, the tissues were immersed three times in 100% xylene, four times in 100% ethanol, and three times in 95% ethanol, each time for one min in all cases, followed by storage for 5 min in flowing water.
After the hydration, the tissues were subjected to immunohistochemistry to examine whether doxorubicin was delivered to each tissue. In this regard, antigen retrieval was performed using a microwave method. The tissues were placed in 10 mM sodium citrate buffer and irradiated three times, each for five min, with microwaves. The tissues were cooled in flowing water and blocked for 2 hours with TBS containing 5% horse serum and 0.02% Triton X-100. […]
Data set [2] in a line: White blood cell count in blood of treated mice. The format is in vivo. The following applies: 60 μg of doxorubicin daily. Here is the method:
Mice were anesthetized by abdominal injection of 150 μL of an anesthetic comprising a mixture of 1:3:6 ketamine:rumpon:PBS, and blood samples were taken from the heart and placed in tubes containing an anti-coagulant agent. A mixture of 10 μL of blood and 90 μL of 1% HCl was stored at room temperature for 7 min, and after 10 μL of the mixture was put into a hematocytometer, and white cells were counted.

In a further data set the test system is Mouse colon 26 cell line. The experiment in a line: Growth of colon 26 cancer tissue, comparison with doxorubicin (Example 21). The format is in vivo, mice.

Procedure for Mouse colon 26 cell line: The mouse colon 26 cell line used in Example 18 was subcutaneously injected at a dose of 1×10^6 cells into mice and cultured for 5 days.
After cultivation for 5 days, PBS, PBS containing 10 μg of the extruded microvesicles loaded with 3 μg of doxorubicin (doxorubicin-microvesicle), or PBS containing 3, 15 or 60 μg of doxorubicin was injected at a dose of 100 μl once every day via the tail vein into mouse groups, each consisting of 5. The volume of cancer tissue was monitored once every two days. The tumor volume was calculated by the equation v=1s^2/2 wherein (1) is a length of the longest axis of a tumor and (s) is a length of the axis perpendicular to the longest axis.

For the compound `COc1cccc2c1C(=O)c1c(O)c3c(c(O)c1C2=O)C[C@@](O)(C(=O)CO)C[C@@H]3O[C@H]1C[C@H](N)[C@H](O)[C@H](C)O1` [doxorubicin], in data set [1], the “doxorubicin delivered to the heart” value is “delivered in a large amount to the heart” and the “doxorubicin in cancer blood vessels” value is given as “cannot by itself be delivered”. In data set [2], the “reduction of white blood cell count compared to the control” value is “at least 50%”. Further, the “equi-effective doxorubicin dose relative to the load of doxorubicin on the microvesicles” value with Mouse colon 26 cell line (60 μg versus 3 μg load) is on record as 20 fold. In addition, in the data set on Mouse colon 26 cell line (daily tail vein injection, colon 26 tumor), the “dose of doxorubicin alone with the same therapeutic effect as the doxorubicin-loaded microvesicles” value turned out to be 60 µg.
